Reference: ChEMBL document CHEMBL3853350 (ACS Med Chem Lett, 2016)

What was measured:
[1] = target: PI3-kinase p110-delta/p85-alpha (Homo sapiens, UniProt O00329); assay: Inhibition of human recombinant full length N-terminal GST-tagged PI3K p110delta/p85alpha coexpressed in baculovirus infected Sf9 insect cells using diC8PIP2 as substrate incubated for 15 mins followed by substrate addition measured after 2 hr by ADP-Glo luminescence assay
[2] = target: Phosphatidylinositol 4,5-bisphosphate 3-kinase catalytic subunit gamma isoform (Homo sapiens, UniProt P48736); assay: biochemical
Phosphatidylinositol 4,5-bisphosphate 3-kinase catalytic subunit gamma isoform, sequence (P48736 whole entry, canonical isoform): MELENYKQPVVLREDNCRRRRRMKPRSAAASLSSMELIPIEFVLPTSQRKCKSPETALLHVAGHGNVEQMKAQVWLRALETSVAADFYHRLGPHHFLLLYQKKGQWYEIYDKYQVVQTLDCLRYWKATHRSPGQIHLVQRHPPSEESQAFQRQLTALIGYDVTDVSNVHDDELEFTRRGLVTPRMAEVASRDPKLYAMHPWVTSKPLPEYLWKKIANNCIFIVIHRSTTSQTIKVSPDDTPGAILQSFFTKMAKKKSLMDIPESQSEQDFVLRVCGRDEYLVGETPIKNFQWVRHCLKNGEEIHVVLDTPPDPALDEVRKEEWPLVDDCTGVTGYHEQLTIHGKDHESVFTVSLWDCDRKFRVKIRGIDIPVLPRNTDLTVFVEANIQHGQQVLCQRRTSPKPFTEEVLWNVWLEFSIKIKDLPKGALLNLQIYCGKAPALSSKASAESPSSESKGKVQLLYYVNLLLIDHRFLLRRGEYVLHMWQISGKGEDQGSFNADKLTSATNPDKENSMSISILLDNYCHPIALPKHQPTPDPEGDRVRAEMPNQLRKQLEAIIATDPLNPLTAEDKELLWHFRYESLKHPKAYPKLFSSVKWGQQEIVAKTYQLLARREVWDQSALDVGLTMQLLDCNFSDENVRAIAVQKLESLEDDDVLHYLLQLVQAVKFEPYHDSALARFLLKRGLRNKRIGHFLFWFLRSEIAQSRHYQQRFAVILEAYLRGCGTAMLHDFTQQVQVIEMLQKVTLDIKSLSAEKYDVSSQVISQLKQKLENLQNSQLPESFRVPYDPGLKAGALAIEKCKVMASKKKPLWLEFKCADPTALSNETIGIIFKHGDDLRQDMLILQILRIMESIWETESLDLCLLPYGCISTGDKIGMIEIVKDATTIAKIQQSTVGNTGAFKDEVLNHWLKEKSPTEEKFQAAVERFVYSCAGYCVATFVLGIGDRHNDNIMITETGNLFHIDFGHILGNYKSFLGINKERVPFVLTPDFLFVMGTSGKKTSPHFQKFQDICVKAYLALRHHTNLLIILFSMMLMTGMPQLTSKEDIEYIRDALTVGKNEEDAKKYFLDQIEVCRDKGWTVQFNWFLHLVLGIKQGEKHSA
Description: Inhibition of human recombinant full length N-terminal His-tagged PI3Kgamma expressed in Sf9 insect cells using diC8PIP2 as substrate incubated for 15 mins followed by substrate addition measured after 2 hr by ADP-Glo luminescence assay

[3] = Half life in mouse hepatocytes at 1 uM by LC/MS analysis; assay type: ADME, cell-based, Hepatocyte

PI3-kinase p110-delta/p85-alpha, sequence (P27986 whole entry, canonical isoform): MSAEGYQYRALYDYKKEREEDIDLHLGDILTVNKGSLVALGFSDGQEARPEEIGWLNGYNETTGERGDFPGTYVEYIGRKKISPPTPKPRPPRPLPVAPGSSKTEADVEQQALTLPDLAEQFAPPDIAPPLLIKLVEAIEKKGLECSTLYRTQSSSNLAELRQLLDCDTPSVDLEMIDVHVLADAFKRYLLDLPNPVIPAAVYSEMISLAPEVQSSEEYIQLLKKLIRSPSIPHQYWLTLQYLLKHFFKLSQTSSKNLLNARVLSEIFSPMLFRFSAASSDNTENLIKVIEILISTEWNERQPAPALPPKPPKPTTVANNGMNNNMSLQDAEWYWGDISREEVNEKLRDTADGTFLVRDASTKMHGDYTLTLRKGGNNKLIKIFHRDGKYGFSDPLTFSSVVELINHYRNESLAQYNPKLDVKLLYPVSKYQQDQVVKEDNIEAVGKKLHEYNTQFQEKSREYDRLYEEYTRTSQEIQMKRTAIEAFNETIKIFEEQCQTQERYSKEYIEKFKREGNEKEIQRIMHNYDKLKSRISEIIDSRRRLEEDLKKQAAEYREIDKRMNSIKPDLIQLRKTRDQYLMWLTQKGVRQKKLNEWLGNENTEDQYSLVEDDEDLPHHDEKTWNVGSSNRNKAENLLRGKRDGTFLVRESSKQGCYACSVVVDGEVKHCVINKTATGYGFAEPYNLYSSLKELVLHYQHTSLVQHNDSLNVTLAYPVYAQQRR
PI3-kinase p110-delta/p85-alpha, sequence (O00329 whole entry, canonical isoform): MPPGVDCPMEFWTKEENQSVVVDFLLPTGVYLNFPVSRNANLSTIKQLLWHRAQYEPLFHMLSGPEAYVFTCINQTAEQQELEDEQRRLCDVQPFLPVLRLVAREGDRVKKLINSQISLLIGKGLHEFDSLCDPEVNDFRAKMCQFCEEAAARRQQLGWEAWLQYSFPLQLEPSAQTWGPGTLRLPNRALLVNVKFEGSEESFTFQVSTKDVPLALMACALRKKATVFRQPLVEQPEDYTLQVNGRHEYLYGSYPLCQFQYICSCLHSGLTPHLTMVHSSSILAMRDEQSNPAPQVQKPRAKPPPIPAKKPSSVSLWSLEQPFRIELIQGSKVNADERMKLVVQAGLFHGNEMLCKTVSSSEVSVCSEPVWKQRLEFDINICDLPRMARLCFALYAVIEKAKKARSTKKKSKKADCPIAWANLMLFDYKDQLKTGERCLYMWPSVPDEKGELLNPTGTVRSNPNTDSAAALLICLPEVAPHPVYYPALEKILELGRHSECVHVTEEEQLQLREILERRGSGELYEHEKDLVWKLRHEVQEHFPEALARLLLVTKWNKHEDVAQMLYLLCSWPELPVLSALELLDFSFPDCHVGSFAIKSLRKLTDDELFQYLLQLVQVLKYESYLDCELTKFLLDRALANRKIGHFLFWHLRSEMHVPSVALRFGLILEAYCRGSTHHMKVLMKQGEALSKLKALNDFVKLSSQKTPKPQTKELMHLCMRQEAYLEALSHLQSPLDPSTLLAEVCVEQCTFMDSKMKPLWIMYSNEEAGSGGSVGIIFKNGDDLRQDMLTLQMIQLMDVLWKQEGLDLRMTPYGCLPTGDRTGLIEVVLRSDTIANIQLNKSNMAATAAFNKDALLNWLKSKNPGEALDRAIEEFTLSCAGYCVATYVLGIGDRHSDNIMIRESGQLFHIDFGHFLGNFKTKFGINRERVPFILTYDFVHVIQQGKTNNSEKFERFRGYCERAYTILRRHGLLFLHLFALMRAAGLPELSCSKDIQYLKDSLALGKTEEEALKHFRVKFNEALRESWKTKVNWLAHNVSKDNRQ

Row | IC50 [1] | IC50 [2] | half-life at 1 µM [3] | Compound
1 | > 10000 nM | > 7000 nM | – | Nc1nn2cccnc2c1C(=O)NCc1cc2cccc(Cl)c2c(=O)n1-c1ccccc1
2 | 4800 nM | 75 nM | 4.5 h | C[C@H](NC(=O)c1c(N)nn2cccnc12)c1cc2cccc(C#Cc3cscn3)c2c(=O)n1-c1ccccc1
3 | 3100 nM | 240 nM | – | C[C@H](NC(=O)c1c(N)nn2cccnc12)c1cc2cccc(C#N)c2c(=O)n1-c1ccccc1
4 | 600 nM | 150 nM | – | CC[C@H](NC(=O)c1c(N)nn2cccnc12)c1cc2cccc(Cl)c2c(=O)n1-c1ccccc1
5 | 800 nM | 400 nM | – | C[C@H](NC(=O)c1cnn2cccnc12)c1cc2cccc(Cl)c2c(=O)n1-c1ccccc1
6 | 140 nM | 280 nM | – | C[C@H](NC(=O)c1c(N)nn2cccnc12)c1cc2cccc(C#Cc3ccccc3)c2c(=O)n1-c1ccccc1
7 | 700 nM | 14 nM | – | C#Cc1cccc2cc([C@H](C)NC(=O)c3c(N)nn4cccnc34)n(-c3ccccc3)c(=O)c12
8 | > 9000 nM | 100 nM | 4.18 h | C[C@H](NC(=O)c1c(N)nn2cccnc12)c1cc2cccc(C#Cc3ccn(C)n3)c2c(=O)n1-c1ccccc1
9 | 900 nM | 1000 nM | – | C[C@H](NC(=O)c1cncc2cccnc12)c1cc2cccc(Cl)c2c(=O)n1-c1ccccc1
10 | > 10000 nM | 1100 nM | – | CNc1cccc2cc([C@H](C)NC(=O)c3c(N)nn4cccnc34)n(-c3ccccc3)c(=O)c12
11 | > 10000 nM | 330 nM | – | C/C=C/c1cccc2cc([C@H](C)NC(=O)c3c(N)nn4cccnc34)n(-c3ccccc3)c(=O)c12
12 | > 6000 nM | 110 nM | 1.7 h | C[C@H](NC(=O)c1c(N)nn2cccnc12)c1cc2cccc(C#Cc3cccnc3)c2c(=O)n1-c1ccccc1
13 | > 1000 nM | 25 nM | – | CC#Cc1cccc2cc([C@H](C)NC(=O)c3c(N)nn4cccnc34)n(-c3ccccc3)c(=O)c12
14 | > 9600 nM | 170 nM | 1.2 h | C[C@H](NC(=O)c1c(N)nn2cccnc12)c1cc2cccc(C#Cc3ccccn3)c2c(=O)n1-c1ccccc1
15 | > 10000 nM | > 10000 nM | – | C[C@H](NC(=O)c1c(N)ncc2ccccc12)c1cc2cccc(Cl)c2c(=O)n1-c1ccccc1
16 | 400 nM | – | – | C[C@H](NC(=O)c1c(N)nn2cccnc12)c1cc2cccc(Cl)c2c(=O)n1-c1ccccc1
17 | > 9000 nM | 350 nM | 0.85 h | C[C@H](NC(=O)c1c(N)nn2cccnc12)c1cc2cccc(C#Cc3ccncc3)c2c(=O)n1-c1ccccc1
18 | > 10000 nM | 1100 nM | – | C[C@H](NC(=O)c1c(N)nn2cccnc12)c1cc2cccc(N(C)C)c2c(=O)n1-c1ccccc1
19 | 2600 nM | – | – | C[C@H](NC(=O)c1c(N)nn2ccccc12)c1cc2cccc(Cl)c2c(=O)n1-c1ccccc1
20 | 530 nM | 50 nM | – | C[C@H](NC(=O)c1c(N)nn2cccnc12)c1cc2cccc(F)c2c(=O)n1-c1ccccc1
21 | > 9000 nM | 1000 nM | – | COc1cccc2cc([C@H](C)NC(=O)c3c(N)nn4cccnc34)n(-c3ccccc3)c(=O)c12
22 | 320 nM | 60 nM | – | C[C@H](NC(=O)c1c(N)ncc2cccnc12)c1cc2cccc(Cl)c2c(=O)n1-c1ccccc1
23 | 2600 nM | 110 nM | – | Cc1cccc2cc([C@H](C)NC(=O)c3c(N)nn4cccnc34)n(-c3ccccc3)c(=O)c12
24 | > 10000 nM | 360 nM | 0.45 h | C[C@H](NC(=O)c1c(N)nn2cccnc12)c1cc2cccc(C#Cc3nccs3)c2c(=O)n1-c1ccccc1
25 | > 8000 nM | 110 nM | 0.717 h | C[C@H](NC(=O)c1c(N)nn2cccnc12)c1cc2cccc(C#Cc3cncs3)c2c(=O)n1-c1ccccc1
